From patent US20080125424A1, “Derivatives of urea and related diamines, methods for their manufacture, and uses therefor” (priority 2006, published 2008)
Structures can show the parent of a compound that is named as a salt.

target: T1, human parathyroid cell Ca2+ receptor (hPCaR) (Homo sapiens, UniProt P41180); test: [Ca2+]i fluorescence assay in HEK 293 4.0-7 cells expressing hPCaR; format: cell-based; details: buffer with 1 mM CaCl2
T1 construct: expressed in transfected cells
T1 sequence (P41180 20-1078): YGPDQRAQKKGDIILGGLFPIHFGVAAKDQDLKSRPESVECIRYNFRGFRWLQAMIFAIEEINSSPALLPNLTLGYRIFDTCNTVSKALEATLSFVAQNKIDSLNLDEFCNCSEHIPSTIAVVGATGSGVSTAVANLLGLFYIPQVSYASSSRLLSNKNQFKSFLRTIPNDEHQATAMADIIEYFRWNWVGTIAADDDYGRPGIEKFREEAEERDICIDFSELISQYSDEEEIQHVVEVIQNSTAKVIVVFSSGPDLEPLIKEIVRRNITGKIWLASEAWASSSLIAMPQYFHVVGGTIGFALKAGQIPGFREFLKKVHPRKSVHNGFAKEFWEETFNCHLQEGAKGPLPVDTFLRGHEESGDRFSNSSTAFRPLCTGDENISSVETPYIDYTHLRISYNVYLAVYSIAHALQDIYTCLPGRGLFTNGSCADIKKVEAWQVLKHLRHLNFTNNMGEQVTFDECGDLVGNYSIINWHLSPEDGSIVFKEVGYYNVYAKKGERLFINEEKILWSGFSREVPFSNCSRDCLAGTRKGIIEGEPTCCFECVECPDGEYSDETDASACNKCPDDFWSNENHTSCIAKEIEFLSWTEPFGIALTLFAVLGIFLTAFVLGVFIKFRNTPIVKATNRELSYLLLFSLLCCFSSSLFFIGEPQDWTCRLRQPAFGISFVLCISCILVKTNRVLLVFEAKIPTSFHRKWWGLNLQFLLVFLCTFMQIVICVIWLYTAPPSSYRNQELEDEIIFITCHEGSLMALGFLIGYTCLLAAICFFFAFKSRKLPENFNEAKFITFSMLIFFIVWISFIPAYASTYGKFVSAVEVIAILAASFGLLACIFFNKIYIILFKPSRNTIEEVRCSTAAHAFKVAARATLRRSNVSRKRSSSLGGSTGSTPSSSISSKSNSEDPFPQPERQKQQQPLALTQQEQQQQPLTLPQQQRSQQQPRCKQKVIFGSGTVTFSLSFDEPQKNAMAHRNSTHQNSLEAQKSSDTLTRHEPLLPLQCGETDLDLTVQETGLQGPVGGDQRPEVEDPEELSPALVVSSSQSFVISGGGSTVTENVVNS
How it was run: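 HEK 293 clone 4.0-7 stably expressing human parathyroid Ca2+ receptor, seeded overnight, then loaded 90 min at room temperature with calcium dye in parathyroid cell buffer (pH 7.45) with 0.5% BSA and 1 mM CaCl2. Fluorescence after compound addition read at ex 485/em 530 nm.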

| SMILES | EC50 [µM] |
| --- | --- |
| O=C(Nc1nc2ccccc2s1)N(CCNC1CCNCC1)CCC(c1ccccc1)c1ccccc1 [Example 143, 3-(benzo[d]thiazol-2-yl)-1-(3,3-diphenylpropyl)-1-(2-(piperidin-4-ylamino)ethyl)urea] | < 0.1 |
| O=C1CC[C@@H](NCCN(CCC(c2ccccc2)c2ccccc2)C(=O)Nc2nc(-c3ccccc3)c(Cl)s2)CN1 [Example 147, (R)-3-(5-chloro-4-phenylthiazol-2-yl)-1-(3,3-diphenylpropyl)-1-(2-(6-oxopiperidin-3-ylamino)ethyl)urea] | < 0.1 |
| CN(C)CC(C)(C)CNCCN(CCC(c1ccccc1)c1ccccc1)C(=O)Nc1nc2ccccc2s1 [Example 150, 3-Benzothiazol-2-yl-1-[2-(3-dimethylamino-2,2-dimethyl-propylamino)-ethyl]-1-(3,3-diphenyl-propyl)-urea trihydrochloride] | 1 to 5 |
| CCOC(=O)CNCCN(CCC(c1ccccc1)c1ccccc1)C(=O)Nc1nc2ccccc2s1 [Example 151, {2-[3-Benzothiazol-2-yl-1-(3,3-diphenyl-propyl)-ureido]-ethylamino}-acetic acid ethyl ester] | 0.1 to 1 |
| CCOC(=O)C1CC1CNCCN(CCC(c1ccccc1)c1ccccc1)C(=O)Nc1nc2ccccc2s1 (centres unmarked) [Example 152, 2-({2-[3-Benzothiazol-2-yl-1-(3,3-diphenyl-propyl)-ureido]-ethylamino}-methyl)cyclopropanecarboxylic acid ethyl ester] | 1 to 5 |
| COC(CNCCN(CCC(c1ccccc1)c1ccccc1)C(=O)Nc1nc2ccccc2s1)OC [Example 153, 3-Benzothiazol-2-yl-1-[2-(2,2-dimethoxy-ethylamino)-ethyl]-1-(3,3-diphenyl-propyl)urea] | 0.1 to 1 |
| COc1ccc(CNCCN(CCC(c2ccccc2)c2ccccc2)C(=O)Nc2nc3ccccc3s2)cn1 [Example 154, 3-Benzothiazol-2-yl-1-(3,3-diphenyl-propyl)-1-{2-[(6-methoxy-pyridin-3-ylmethyl)amino]-ethyl}-urea] | 0.1 to 1 |
| O=C(Nc1nc2ccccc2s1)N(CCNC1CCSCC1)CCC(c1ccccc1)c1ccccc1 [Example 155, 3-Benzothiazol-2-yl-1-(3,3-diphenyl-propyl)-1-[2-(tetrahydro-thiopyran-4-ylamino)ethyl]-urea] | 1 to 5 |
| CC1OCCC1NCCN(CCC(c1ccccc1)c1ccccc1)C(=O)Nc1nc2ccccc2s1 (centres unmarked) [Example 157, 3-Benzothiazol-2-yl-1-(3,3-diphenyl-propyl)-1-[2-(2-methyl-tetrahydro-furan-3-ylamino)-ethyl]-urea] | < 0.1 |
| CC(C)(C)OC(=O)CN1CCC(NCCN(CCC(c2ccccc2)c2ccccc2)C(=O)Nc2nc3ccccc3s2)CC1 [Example 158, (4-{2-[3-Benzothiazol-2-yl-1-(3,3-diphenyl-propyl)-ureido]-ethylamino}-piperidin-1-yl)acetic acid tert-butyl ester] | 0.1 to 1 |
| O=C(O)CNCCN(CCC(c1ccccc1)c1ccccc1)C(=O)Nc1nc2ccccc2s1 [Example 161, {2-[3-Benzothiazol-2-yl-1-(3,3-diphenyl-propyl)-ureido]-ethylamino}-acetic acid] | 0.1 to 1 |
| O=C(O)CN1CCC(NCCN(CCC(c2ccccc2)c2ccccc2)C(=O)Nc2nc3ccccc3s2)CC1 [Example 162, (4-{2-[3-Benzothiazol-2-yl-1-(3,3-diphenyl-propyl)-ureido]-ethylamino}-piperidin-1-yl)acetic acid] | < 0.1 |
| CN(CCN(CCC(c1ccccc1)c1ccccc1)C(=O)Nc1nc2ccccc2s1)C1CCCCC1 [Example 163, 3-Benzothiazol-2-yl-1-[2-(cyclohexyl-methyl-amino)-ethyl]-1-(3,3-diphenyl-propyl)-urea] | 0.1 to 1 |
| CN(CCN(CCC(c1ccccc1)c1ccccc1)C(=O)Nc1nc(-c2ccccc2)cs1)C1CCCCC1 [Example 164, 1-[2-(Cyclohexyl-methyl-amino)-ethyl]-1-(3,3-diphenyl-propyl)-3-(4-phenyl-thiazol-2-yl)-urea] | 0.1 to 1 |
| CC(C)(C)OC(=O)N1CCC(C(=O)NCCN(CCC(c2ccccc2)c2ccccc2)C(=O)Nc2nc3ccccc3s2)CC1 [Example 165, 4-{2-[3-Benzothiazol-2-yl-1-(3,3-diphenyl-propyl)-ureido]-ethylcarbamoyl}-piperidine-1-carboxylic acid tert-butyl ester] | 0.1 to 1 |
| O=C(NCCN(CCC(c1ccccc1)c1ccccc1)C(=O)Nc1nc2ccccc2s1)C1CCNCC1 [Example 166, Piperidine-4-carboxylic acid {2-[3-benzothiazol-2-yl-1-(3,3-diphenyl-propyl)-ureido]-ethyl}-amide] | < 0.1 |
| CC(=O)Nc1ccc(S(=O)(=O)NCCN(CCC(c2ccccc2)c2ccccc2)C(=O)Nc2nc3ccccc3s2)cc1 [Example 170, N-(4-{2-[3-Benzothiazol-2-yl-1-(3,3-diphenylpropyl)-ureido]-ethylsulfamoyl}-phenyl)acetamide] | 0.1 to 1 |
| CN(C)S(=O)(=O)NCCN(CCC(c1ccccc1)c1ccccc1)C(=O)Nc1nc2ccccc2s1 [Example 174, N,N-dimethylamino-sulfonyl-{2-[3-benzothiazol-2-yl-1-(3,3-diphenyl-propyl)-ureido]-ethyl}-amide] | 0.1 to 1 |
| O=C(Nc1nc2ccccc2s1)N(CCO)CCC(c1ccccc1)c1ccccc1 [Example 175, 3-Benzothiazol-2-yl-1-(3,3-diphenylpropyl)-1-(2-hydroxy-ethyl)-urea] | 0.1 to 1 |
| CS(=O)(=O)Nc1ccc(-c2nc(NC(=O)NCCC(c3ccccc3)c3ccccc3)sc2Cl)cc1 [Example 176, 1-(5-chloro-4-(4-(methylsulfonamido)phenyl)thiazol-2-yl)-3-(3,3-diphenylpropyl)urea] | 0.1 to 1 |

Next, values leading:

| EC50 [µM] | SMILES |
| --- | --- |
| < 0.1 | O=C1CC[C@@H](NCCN(CCC(c2ccccc2)c2ccccc2)C(=O)Nc2nc3ccccc3s2)CN1 [Example 144, (R)-3-(benzo[d]thiazol-2-yl)-1-(3,3-diphenylpropyl)-1-(2-(6-oxopiperidin-3-ylamino)ethyl)urea] |
| < 0.1 | O=C(Nc1nc2ccccc2s1)N(CCN[C@@H]1CCCNC1)CCC(c1ccccc1)c1ccccc1 [Example 145, (R)-3-(benzo[d]thiazol-2-yl)-1-(3,3-diphenylpropyl)-1-(2-(piperidin-3-ylamino)ethyl)urea] |
| 0.1 to 1 | CC(C)(C)OC(=O)NCCN(CCC(c1ccccc1)c1ccccc1)C(=O)Nc1nc2ccccc2s1 [Example 148, {2-[3-Benzothiazol-2-yl-1-(3,3-diphenyl-propyl)-ureido]-ethyl}-carbamic acid tert-butyl ester] |
| 0.1 to 1 | O=C(Nc1nc2ccccc2s1)N(CCNCC1CCN(C(=O)OCc2ccccc2)CC1)CCC(c1ccccc1)c1ccccc1 [Example 149, 4-({2-[3-Benzothiazol-2-yl-1-(3,3-diphenyl-propyl)-ureido]-ethylamino}-methyl)piperidine-1-carboxylic acid benzyl ester] |
| 1 to 5 | O=C(Nc1nc2ccccc2s1)N(CCNC1CCOCC1)CCC(c1ccccc1)c1ccccc1 [Example 156, 3-Benzothiazol-2-yl-1-(3,3-diphenyl-propyl)-1-[2-(tetrahydro-pyran-4-ylamino)-ethyl]-urea] |
| 0.1 to 1 | CC(C)(C)OC(=O)N1CCC(NCCN(CCC(c2ccccc2)c2ccccc2)C(=O)Nc2nc3ccccc3s2)CC1 [Example 159, 4-{2-[3-Benzothiazol-2-yl-1-(3,3-diphenyl-propyl)-ureido]-ethylamino}-piperidine-1-carboxylic acid tert-butyl ester] |
| 0.1 to 1 | CS(=O)(=O)NCCN(CCC(c1ccccc1)c1ccccc1)C(=O)Nc1nc2ccccc2s1 [Example 167, N-{2-[3-Benzothiazol-2-yl-1-(3,3-diphenyl-propyl)-ureido]-ethyl}-methanesulfonamide] |
| 1 to 5 | CCCS(=O)(=O)NCCN(CCC(c1ccccc1)c1ccccc1)C(=O)Nc1nc2ccccc2s1 [Example 168, Propane-1-sulfonic acid {2-[3-benzothiazol-2-yl-1-(3,3-diphenyl-propyl)-ureido]-ethyl}-amide] |
| 1 to 5 | N#Cc1ccc(S(=O)(=O)NCCN(CCC(c2ccccc2)c2ccccc2)C(=O)Nc2nc3ccccc3s2)cc1 [Example 169, N-{2-[3-Benzothiazol-2-yl-1-(3,3-diphenyl-propyl)-ureido]-ethyl}-4-cyanobenzenesulfonamide] |
